This is an account of results in PubChem BioAssay (NCI).

Test systems include UO-31 renal; TK-10 renal; LOX IMVI melanoma; NCI-H522 lung; SK-OV-3 ovarian; T-47D breast; CCRF-CEM leukemia; SR leukemia; COLO 205 colon; SK-MEL-5 melanoma.
Test in all cases: NCI tumour cell line growth inhibition, 48 h

Molecules are shown by their SMILES.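 48-hour exposure; five concentrations; linearly interpolated endpoints. TGI denotes the concentration required for complete inhibition of growth.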

Regarding `OCC1OC(c2cccc3cc(O)c(O)cc23)CC1O` (centres undefined), the TGI in the assay with UO-31 renal, in the assay with TK-10 renal, in the assay on LOX IMVI melanoma, in the assay with NCI-H522 lung, with SK-OV-3 ovarian and with T-47D breast was above 100 µM each time.

Regarding `CC(C)(C)[Si](OC1CC(n2cnc3c(N)ncnc32)OC1CO)(c1ccccc1)c1ccccc1` (centres undefined), the TGI was 68.1 µM in the assay on UO-31 renal; above 100 µM with CCRF-CEM leukemia; 53.4 µM with TK-10 renal; 31.7 µM in the assay on LOX IMVI melanoma; 30 µM in the assay on NCI-H522 lung; 43.8 µM in the assay with SR leukemia. Besides, the TGI in the assay with SK-OV-3 ovarian was determined as 32.7 µM; in the assay with COLO 205 colon, 88.1 µM.

`COc1ccc(C2C(Cl)C(=O)N2n2cnc3ccccc3c2=O)cc1` (centres undefined): the TGI in the assay on UO-31 renal, in the assay with TK-10 renal, in the assay on LOX IMVI melanoma, with NCI-H522 lung, in the assay on SK-MEL-5 melanoma and with SR leukemia was above 100 µM throughout. Besides, the TGI with SK-OV-3 ovarian and in the assay with COLO 205 colon was above 100 µM throughout.

For the compound `COc1ccccc1/C(=N\OCCC(=O)O)c1cccs1`, the TGI in the assay with UO-31 renal, in the assay with CCRF-CEM leukemia, in the assay with TK-10 renal, with LOX IMVI melanoma, in the assay with SK-MEL-5 melanoma and in the assay with SK-OV-3 ovarian was above 100 µM each time. Further, the TGI with COLO 205 colon and with T-47D breast was above 100 µM in each case.

In the case of `O=C(O)CC1NC(/C(=C/c2ccccc2)NC(=O)c2ccccc2)OC1=O` (centres undefined), the TGI is 59 µM in the assay with UO-31 renal; 86.6 µM in the assay on CCRF-CEM leukemia; above 100 µM with TK-10 renal; 36 µM in the assay on LOX IMVI melanoma; 33.5 µM with NCI-H522 lung; 32.3 µM with SK-MEL-5 melanoma. Besides, the figures for the TGI in the assay with SK-OV-3 ovarian, in the assay on COLO 205 colon and in the assay with T-47D breast were above 100 µM, 40.6 µM and above 100 µM, respectively.

For `O=Cc1cn(CCCCCCCCCCCCn2cc(C=O)c3ccccc32)c2ccccc12`, the TGI in the assay on UO-31 renal, in the assay on TK-10 renal, in the assay on LOX IMVI melanoma, with NCI-H522 lung, in the assay with SK-MEL-5 melanoma and with SR leukemia was above 100 µM each time. Besides, the TGI with SK-OV-3 ovarian and in the assay on COLO 205 colon was above 100 µM each time.

Regarding `OC1(C(F)(F)F)OCCN=C1C(F)(F)F` (centres undefined), the TGI in the assay on UO-31 renal, in the assay with CCRF-CEM leukemia, in the assay with TK-10 renal, in the assay with LOX IMVI melanoma, in the assay with NCI-H522 lung and with SK-MEL-5 melanoma was above 100 µM in each case. For the same compound, the TGI in the assay on SK-OV-3 ovarian, with COLO 205 colon and in the assay with T-47D breast was above 100 µM each time.

Take `CCN(CC)CCC(=O)/C=C/c1ccccc1`: the TGI in the assay with UO-31 renal was 25.8 µM; in the assay with CCRF-CEM leukemia, above 47.2 µM; with TK-10 renal, 32.3 µM; in the assay with LOX IMVI melanoma it was 7.16 µM; with NCI-H522 lung, 24.2 µM; in the assay on SK-MEL-5 melanoma it was 44.8 µM. In addition, the TGI in the assay with SR leukemia is 16.1 µM; with COLO 205 colon it was 18 µM.

Regarding `NC1CC(=O)c2c(Br)csc21` (centres undefined), the TGI in the assay on UO-31 renal is 81.2 µM; with CCRF-CEM leukemia, above 100 µM; in the assay with TK-10 renal it was 96.7 µM; in the assay on SK-MEL-5 melanoma, above 100 µM; with SR leukemia, above 100 µM; in the assay with SK-OV-3 ovarian, above 100 µM. Further, the TGI with COLO 205 colon and in the assay on T-47D breast was above 100 µM throughout.

In the case of `CCOc1cc2c(OCc3ccccc3)cc3c4cc(OC)c(OC)cc4c[n+](C)c3c2cc1OC`, the TGI with UO-31 renal was above 80.4 µM; in the assay with CCRF-CEM leukemia it was 23 µM; in the assay on TK-10 renal, above 62.6 µM; in the assay on NCI-H522 lung, 1.43 µM; with SK-OV-3 ovarian it was 19.4 µM; in the assay with COLO 205 colon, 0.481 µM. The compound further came in with a TGI with T-47D breast above 100 µM.

On to `COc1cc2cc3c4c(cc(OC)c(OC)c4c2cc1OC)CCN3C(=O)OCCN1CCNCC1`, for which the TGI worked out at 28.1 µM with UO-31 renal; 44.6 µM in the assay on CCRF-CEM leukemia; 28.3 µM with TK-10 renal; 26.6 µM with LOX IMVI melanoma; 30.6 µM in the assay with NCI-H522 lung; 28.2 µM with SK-MEL-5 melanoma. In addition, the results for the TGI with SR leukemia, in the assay on SK-OV-3 ovarian and in the assay with COLO 205 colon were 29.8 µM, 31.8 µM and 20.9 µM, respectively.

For the compound `CC(C)(C)OC(=O)N1CCc2[nH][nH]c(=O)c2C1`, the TGI with UO-31 renal, in the assay on CCRF-CEM leukemia, with TK-10 renal, in the assay with NCI-H522 lung, in the assay on SR leukemia and with SK-OV-3 ovarian was above 100 µM in each case. The same compound came in with a TGI with COLO 205 colon above 100 µM.

Regarding `CNC(C#N)c1ccc(OC)cc1` (centres undefined), the TGI with UO-31 renal, with CCRF-CEM leukemia, with TK-10 renal, in the assay on LOX IMVI melanoma, in the assay with NCI-H522 lung and in the assay on SK-MEL-5 melanoma was above 100 µM throughout. Besides, the TGI with SK-OV-3 ovarian, in the assay with COLO 205 colon and in the assay with T-47D breast was above 100 µM each time.

For the compound `Nc1ccc2c(c1)N(C(=O)c1cc3cc(NC(=O)c4cc5ccccc5o4)ccc3[nH]1)CC2CCl` (centres undefined), the TGI was 13.1 µM in the assay on UO-31 renal; 2.07 µM in the assay with TK-10 renal; above 100 µM with LOX IMVI melanoma; above 33.4 µM in the assay with SK-OV-3 ovarian; 1.6 µM with COLO 205 colon; 0.683 µM in the assay on T-47D breast.

As to `CC1=CC(C)C/C=C/C2C3OC3(C)C(C)C3C(Cc4c[nH]c5ccccc45)NC(=O)C23C(=O)C=CC(=O)C1O` (centres undefined), the TGI with UO-31 renal is 6.05 µM; in the assay with CCRF-CEM leukemia, 3.02 µM; in the assay on TK-10 renal it was 3.39 µM; in the assay on LOX IMVI melanoma, 17.9 µM; in the assay on NCI-H522 lung it was 8.03 µM; in the assay on SK-MEL-5 melanoma, 24.4 µM. Besides, the TGI in the assay on SK-OV-3 ovarian was 25.2 µM; in the assay with COLO 205 colon it was 2 µM; with T-47D breast, 3.76 µM.

On to `CNc1ccc(C(=O)CC(O)CCC(C)C2OC(=O)CC(O)CC(=O)CC(O)CC(O)CC(O)CC(O)CC3(O)CC(O)C(C(=O)NCCN(C)C)C(CC(OC4OC(C)C(O)C(NC(=O)CN5CCN(C)CC5)C4O)/C=C/C=C/C=C/C=C\C=C/C=C/C=C/C2C)O3)cc1` (centres undefined), for which the TGI with UO-31 renal, in the assay on TK-10 renal, in the assay on SK-OV-3 ovarian, in the assay with COLO 205 colon and with T-47D breast was above 100 µM in each case.

Take `CCc1cc2c(oc3cc4ccccc4cc32)c(=O)[nH]1`: the TGI with UO-31 renal, in the assay with TK-10 renal, in the assay on LOX IMVI melanoma, in the assay with NCI-H522 lung and in the assay with SR leukemia was above 10 µM throughout.
